The numbers were not newly measured in US20250194589A1, “AGROCHEMICAL EMULSIFIABLE COMPOSITION” (priority 2022, published 2025), which cites them from elsewhere.

Like-named read-outs stand apart in the source and are kept apart here.

Assay in data set [1]: not given
The source holds these as a separate data set.

The mark [2] stands for this setting: measurement method: Flask shaking.

With `Cc1c(COC(=O)[C@@H]2[C@H](/C=C(\Cl)C(F)(F)F)C2(C)C)cccc1-c1ccccc1` (racemic) [Bifenthrin], the LogPow (measurement method: HPLC) is given as 6.6. Also, the Degree of water-solubility in data set [1] (20-25° C.) is <0.1 ng/mL.
Regarding `Cc1c(F)c(F)c(COC(=O)[C@@H]2[C@H](/C=C(\Cl)C(F)(F)F)C2(C)C)c(F)c1F` (racemic) [Tefluthrin], the LogPow (measurement method not printed) was 6.4.
With `C/C(=N\C#N)N(C)Cc1ccc(Cl)nc1` [Acetamiprid, acetamiprid], the LogPow entry is on record as “Acetamiprid (LogPow = 0.8)” (measurement method not printed) and 0.8 (measurement method not printed, listed as acetamiprid).
As to `CC1(C)[C@H](C(=O)O[C@H](C#N)c2cccc(Oc3ccccc3)c2)[C@@H]1/C=C\C(=O)OC(C(F)(F)F)C(F)(F)F` [Acrinathrin], the LogPow under setting [2] is listed as 5.6.
Consider `CCCOc1cc(C(F)(F)F)ccc1O[C@H]1C[C@H]2CCC[C@@H](C1)N2Oc1ccc(C(F)(F)F)cn1` [Acynonapyr], for which, where the note is “measurement method not printed”, the LogPow is 6.5. Besides, the Degree of water-solubility in data set [1] (20° C.) is 0.889 ng/mL.
As for `Cc1ccc(/N=C/N(C)/C=N/c2ccc(C)cc2C)c(C)c1` [Amitraz], where the note is “measurement method not printed”, the LogPow was 5.5. For the same compound, the Degree of water-solubility in data set [1] (25° C.) is 94 ng/mL.
In the case of `CCOC(=O)CCN(SN(C)C(=O)Oc1cccc2c1OC(C)(C)C2)C(C)C` [Benfuracarb], the LogPow under setting [2] was 4.22.
As for `CCOP(=O)(SC(C)CC)SC(C)CC` (stereo not drawn) [Cadusafos], the LogPow (measurement method: HPLC) is 4.08.
`CCCCN(CCCC)SN(C)C(=O)Oc1cccc2c1OC(C)(C)C2` [Carbosulfan]: where the note is “measurement method not printed”, the LogPow is 5.45. Also, the Degree of water-solubility in data set [1] (25° C.) was 3000 ng/mL.
Take `CCOP(=S)(OCC)Oc1nc(Cl)c(Cl)cc1Cl` [Chlorpyrifos]: the LogPow under setting [2] is given as 4.70. The Degree of water-solubility in data set [1] (25° C.) is 941 ng/mL.
For `Clc1ccccc1-c1nnc(-c2ccccc2Cl)nn1` [Clofentezine], the LogPow (measurement method: HPLC) is on record as 4.1.
On to `Cc1nn(C)c(/C(OC(=O)C(C)(C)C)=C(\C#N)c2ccc(C(C)(C)C)cc2)c1C` [Cyenopyrafen], for which the LogPow (measurement method: HPLC) was 5.6. Further, in data set [1] (20° C.), the Degree of water-solubility is 300 ng/mL.
Consider `COCCOC(=O)C(C#N)(C(=O)c1ccccc1C(F)(F)F)c1ccc(C(C)(C)C)cc1` (stereo not drawn) [Cyflumetofen], for which the LogPow (measurement method: HPLC) was 4.3.
`CC1(C)C(C=C(Cl)Cl)C1C(=O)OC(C#N)c1ccc(F)c(Oc2ccccc2)c1` (stereo not drawn) [Cyfluthrin]: under “measurement method not printed”, the LogPow was 6.00.
In the case of `CC1(C)C(/C=C(\Cl)C(F)(F)F)C1C(=O)OC(C#N)c1cccc(Oc2ccccc2)c1` (stereo not drawn) [Cyhalothrin], the LogPow (measurement method not printed) is given as 6.9. Besides, in data set [1] (20° C.), the Degree of water-solubility was 4.2 ng/mL.
As for `ClC1=C(Cl)C(Cl)(C2(Cl)C(Cl)=C(Cl)C(Cl)=C2Cl)C(Cl)=C1Cl` [Dienochlor], for the setting “measurement method not printed”, the LogPow was 7.2. Also, in data set [1] (25° C.), the Degree of water-solubility was 26 ng/mL.
Take `CCOc1ccc(C(C)(C)COCc2cccc(Oc3ccccc3)c2)cc1` [Etofenprox]: under “measurement method: HPLC”, the LogPow is 6.9. Moreover, in data set [1] (20° C.), the Degree of water-solubility is 22.5 ng/mL.
With `CCOc1cc(C(C)(C)C)ccc1C1COC(c2c(F)cccc2F)=N1` (stereo not drawn) [Etoxazole], the LogPow (measurement method not printed) is given as 5.52 ± 0.58. Moreover, the Degree of water-solubility in data set [1] (20° C.) is 70.4 ng/mL.
As to `CC(C)(C)c1ccc(CCOc2ncnc3ccccc23)cc1` [Fenazaquin], the LogPow (measurement method not printed) is 5.71.
In the case of `CC(C)C(C(=O)OC(C#N)c1cccc(Oc2ccccc2)c1)c1ccc(Cl)cc1` (stereo not drawn) [Fenvalerate], the LogPow (measurement method not printed) is reported as 6.53.
With `CC(C)[C@H](C(=O)OC(C#N)c1cccc(Oc2ccccc2)c1)c1ccc(OC(F)F)cc1` (stereo partly drawn) [Flucythrinate], the LogPow (measurement method not printed) was 4.74.
As to `CC(C)[C@H](Nc1ccc(C(F)(F)F)cc1Cl)C(=O)OC(C#N)c1cccc(Oc2ccccc2)c1` (stereo partly drawn) [Fluvalinate], under setting [2], the LogPow was 4.26. Further, the Degree of water-solubility in data set [1] (20° C.) was 1.12 ng/mL.
In the case of `CON=CNC(=O)c1ccc(C2=NOC(c3cc(Cl)cc(Cl)c3)(C(F)(F)F)C2)cc1C` (stereo not drawn) [Fluxametamide], the LogPow (measurement method: HPLC) is 5.0. For the same compound, the Degree of water-solubility in data set [1] (20° C.) was 54 ng/mL.
In the case of `COC(=O)N(C(=O)N1CO[C@@]2(C(=O)OC)Cc3cc(Cl)ccc3C2=N1)c1ccc(OC(F)(F)F)cc1` [Indoxacarb], under setting [2], the LogPow is on record as 4.65. Further, the Degree of water-solubility in data set [1] (25° C.) was 200 ng/mL.
Consider `O=C(NC(=O)c1c(F)cccc1F)Nc1cc(Cl)c(OC(F)(F)C(F)C(F)(F)F)cc1Cl` (stereo not drawn) [Lufenuron], for which the LogPow (measurement method: HPLC) was 5.12. Further, the Degree of water-solubility in data set [1] (25° C.) was <60 ng/mL.
Take `O=C(NC(=O)c1c(F)cccc1F)Nc1ccc(OC(F)(F)C(F)OC(F)(F)F)c(Cl)c1` (stereo not drawn) [Novaluron]: the LogPow (measurement method: HPLC) is recorded as 4.3. In addition, in data set [1] (20° C.), the Degree of water-solubility was 3 ng/mL.
For `CC1(C)C(C=C(Cl)Cl)C1C(=O)OCc1cccc(Oc2ccccc2)c1` (stereo not drawn) [Permethrin], the LogPow under setting [2] is 6.36.
For the compound `CCCSP(=O)(OCC)Oc1ccc(Br)cc1Cl` (stereo not drawn) [Profenofos], the LogPow (measurement method not printed) is 4.435.
`CCCSP(=S)(OCC)Oc1ccc(Cl)cc1Cl` (stereo not drawn) [Prothiofos]: under setting [2], the LogPow was 5.67.
On to `COC(c1ccc(N(C(=O)c2c(C)nn(C)c2C)C(=O)C(C)C)cc1CC(C)C)(C(F)(F)F)C(F)(F)F` [Pyflubumide], for which, under setting [2], the LogPow is given as 5.34. In data set [1] (20° C.), the Degree of water-solubility was 270 ng/mL.
In the case of `FC(F)(F)c1ccc(OCCCOc2c(Cl)cc(OCC=C(Cl)Cl)cc2Cl)nc1` [Pyridalyl], the LogPow (measurement method: HPLC) was 8.1. For the same compound, the Degree of water-solubility in data set [1] (25° C.) is 0.15 ng/mL.
Turning to `CCC(C)(C)C(=O)OC1=C(c2ccc(Cl)cc2Cl)C(=O)OC12CCCCC2` [Spirodiclofen], under setting [2], the LogPow is listed as 5.83. The Degree of water-solubility in data set [1] (20° C.) is 50 ng/mL.
As to `Cc1cc(C)c(C2=C(OC(=O)CC(C)(C)C)C3(CCCC3)OC2=O)c(C)c1` [Spiromesifen], for the setting “measurement method: HPLC”, the LogPow is given as 4.55. Besides, in data set [1] (20° C.), the Degree of water-solubility was 130 ng/mL.
For the compound `CCc1nn(C)c(C(=O)NCc2ccc(C(C)(C)C)cc2)c1Cl` [Tebufenpyrad], the LogPow under setting [2] is given as 4.93.
Take `CCc1nn(C)c(C(=O)NCc2ccc(Oc3ccc(C)cc3)cc2)c1Cl` [Tolfenpyrad]: the LogPow entry was “Tolfenpyrad (LogPow = 5.61)” (measurement method not printed); 5.61 (measurement method not printed, listed as tolfenpyrad); 5.6 under setting [2]. Also, in data set [1] (25° C.), the Degree of water-solubility was 87 ng/mL.
Regarding Abamectin, the LogPow under setting [2] was 4.4 ± 0.3. Moreover, the Degree of water-solubility in data set [1] (25° C.) was 1210 ng/mL.
As to Emamectin benzoate, the LogPow (measurement method not printed) is recorded as 5.7.
Lepimectin: the LogPow (measurement method: HPLC) was 6.5. Moreover, in data set [1] (25° C.), the Degree of water-solubility is 103.47 ng/mL.
Take Milbemectin [Milbemectin (M.A3)]: the LogPow under setting [2] is given as >4.94. Besides, the Degree of water-solubility in data set [1] (20° C.) is 880 ng/mL.
Consider Milbemectin [Milbemectin (M.A4)], for which the LogPow under setting [2] is given as >5.06. Also, the Degree of water-solubility in data set [1] (20° C.) was 7200 ng/mL.
As for Pyrethrin, the LogPow (measurement method not printed) is listed as 5.6. Moreover, in data set [1] (temperature not given), the Degree of water-solubility is 9000 ng/mL.
